Assay results as given in ChEMBL document CHEMBL1132400, “A combinatorial approach to the identification of dipeptide aldehyde inhibitors of beta-amyloid production” (J Med Chem, 1999).

Experiments:
Type in all cases: functional, cell-based
N9 [1] = test: Compound was tested for the inhibition of total beta-Amyloid Production in N9 cell line expressing beta-APP (wascreated by transfecting the human cDNA encoding beta-APP 695) by using enzyme-linked immunosorbent assay
N9 [2] = test: Compound was tested for the inhibition of 1-42 beta-Amyloid Production in N9 cell line expressing beta-APP (wascreated by transfecting the human cDNA encoding beta-APP 695) by using immunoprecipitation assay
N9 [3] = test: Compound was tested for the inhibition of total beta-Amyloid Production in N9 cell line expressing beta-APP (wascreated by transfecting the human cDNA encoding beta-APP 695) by using immunoprecipitation assay
N9 [4] = test: Compound was tested for the inhibition of beta-Amyloid Production in N9 cell line expressing beta-APP; details: Homo sapiens
N9 [5] = test: Compound was tested for the inhibition of 1-40 beta-Amyloid Production in N9 cell line expressing beta-APP (wascreated by transfecting the human cDNA encoding beta-APP 695) by using immunoprecipitation assay

Compound: CCC(C)[C@H](NC(=O)/C=C/c1cc(OC)cc(OC)c1)C(=O)N[C@H](C=O)CC(C)C (stereo not given in full)
- IC50 (N9 [1]): 10 µM
- IC50 (N9 [2]): > 50 µM
- IC50 (N9 [3]): 15 µM
- IC50 (N9 [4]): 9.6 µM
- IC50 (N9 [5]): 22 µM
